Results from patent US20240316022A1 (TYRA BIOSCIENCES, INC., priority 2021, published 2024).

Assays:
BCR-FGFR4 Ba/F3 = target: T1, BCR-FGFR4 Ba/F3 (Homo sapiens, UniProt P22455); experiment: Ba/F3 cell viability assay (CellTiter-Glo 2.0); type: cell-based; conditions: Ba/F3 BCR-FGFR4 cells, 48 hours
T1 construct: host or cells: Ba/F3; the other entry of the earlier key: BCR (P11274, Breakpoint cluster region protein)

BCR-FGFR1 Ba/F3 = target: T2, BCR-FGFR1 Ba/F3 (Homo sapiens, UniProt P11362); experiment: Ba/F3 cell viability assay (CellTiter-Glo 2.0); type: cell-based; conditions: Ba/F3 BCR-FGFR1 cells, 48 hours
T2 construct: host or cells: Ba/F3; the other entry of the earlier key: BCR (P11274, Breakpoint cluster region protein)

FGFR3-BAIAP2L1 Ba/F3 = target: T3, FGFR3-BAIAP2L1 Ba/F3 (Homo sapiens, UniProt P22607); experiment: Ba/F3 cell viability assay (CellTiter-Glo 2.0); type: cell-based; conditions: Ba/F3 FGFR3-BAIAP2L1 cells, 48 hours
T3 construct: host or cells: Ba/F3; the other entry of the earlier key: BAIAP2L1 (Q9UHR4, BAR/IMD domain-containing adapter protein 2-like 1)

FGFR4 = target: T4, FGFR4 (Homo sapiens, UniProt P22455); experiment: Kinase binding assay (kinase-tagged T7 phage, qPCR), Kd; conditions: read-out: FGFR4 (Kd nM)
T4 construct: made in house; host or cells: E. coli derived from BL21, infected with T7 phage

FGFR3 = target: T5, FGFR3 (Homo sapiens, UniProt P22607); experiment: as above; conditions: read-out: FGFR3 (Kd nM)
T5 construct: made in house; host or cells: E. coli derived from BL21, infected with T7 phage

FGFR2 = target: T6, FGFR2 (Homo sapiens, UniProt P21802); experiment: as above; conditions: read-out: FGFR2 (Kd nM)
T6 construct: made in house; host or cells: E. coli derived from BL21, infected with T7 phage

FGFR1 = target: T7, FGFR1 (Homo sapiens, UniProt P11362); experiment: as above; conditions: read-out: FGFR1 (Kd nM)
T7 construct: made in house; host or cells: E. coli derived from BL21, infected with T7 phage
T7 sequence (P11362 22-822): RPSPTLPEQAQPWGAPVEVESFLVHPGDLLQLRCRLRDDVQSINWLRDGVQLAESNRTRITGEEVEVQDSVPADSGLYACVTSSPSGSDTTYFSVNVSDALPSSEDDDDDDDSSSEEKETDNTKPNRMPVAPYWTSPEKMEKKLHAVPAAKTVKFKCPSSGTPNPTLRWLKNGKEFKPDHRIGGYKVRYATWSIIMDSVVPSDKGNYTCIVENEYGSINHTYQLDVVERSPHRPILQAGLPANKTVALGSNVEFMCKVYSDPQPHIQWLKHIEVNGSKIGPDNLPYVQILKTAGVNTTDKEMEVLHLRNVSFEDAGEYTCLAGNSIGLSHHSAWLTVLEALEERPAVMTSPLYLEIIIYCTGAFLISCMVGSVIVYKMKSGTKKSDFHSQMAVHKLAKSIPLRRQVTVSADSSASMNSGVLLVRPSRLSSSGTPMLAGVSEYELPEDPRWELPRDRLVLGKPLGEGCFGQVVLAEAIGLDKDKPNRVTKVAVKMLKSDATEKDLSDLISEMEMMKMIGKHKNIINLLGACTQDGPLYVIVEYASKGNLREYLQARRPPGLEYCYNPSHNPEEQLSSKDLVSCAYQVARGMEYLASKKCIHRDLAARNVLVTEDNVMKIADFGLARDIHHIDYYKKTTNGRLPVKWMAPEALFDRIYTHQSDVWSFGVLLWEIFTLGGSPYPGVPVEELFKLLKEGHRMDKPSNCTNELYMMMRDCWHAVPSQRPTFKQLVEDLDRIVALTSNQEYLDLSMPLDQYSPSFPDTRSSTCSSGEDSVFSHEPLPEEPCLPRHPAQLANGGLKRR

T4 sequence (P22455 22-802): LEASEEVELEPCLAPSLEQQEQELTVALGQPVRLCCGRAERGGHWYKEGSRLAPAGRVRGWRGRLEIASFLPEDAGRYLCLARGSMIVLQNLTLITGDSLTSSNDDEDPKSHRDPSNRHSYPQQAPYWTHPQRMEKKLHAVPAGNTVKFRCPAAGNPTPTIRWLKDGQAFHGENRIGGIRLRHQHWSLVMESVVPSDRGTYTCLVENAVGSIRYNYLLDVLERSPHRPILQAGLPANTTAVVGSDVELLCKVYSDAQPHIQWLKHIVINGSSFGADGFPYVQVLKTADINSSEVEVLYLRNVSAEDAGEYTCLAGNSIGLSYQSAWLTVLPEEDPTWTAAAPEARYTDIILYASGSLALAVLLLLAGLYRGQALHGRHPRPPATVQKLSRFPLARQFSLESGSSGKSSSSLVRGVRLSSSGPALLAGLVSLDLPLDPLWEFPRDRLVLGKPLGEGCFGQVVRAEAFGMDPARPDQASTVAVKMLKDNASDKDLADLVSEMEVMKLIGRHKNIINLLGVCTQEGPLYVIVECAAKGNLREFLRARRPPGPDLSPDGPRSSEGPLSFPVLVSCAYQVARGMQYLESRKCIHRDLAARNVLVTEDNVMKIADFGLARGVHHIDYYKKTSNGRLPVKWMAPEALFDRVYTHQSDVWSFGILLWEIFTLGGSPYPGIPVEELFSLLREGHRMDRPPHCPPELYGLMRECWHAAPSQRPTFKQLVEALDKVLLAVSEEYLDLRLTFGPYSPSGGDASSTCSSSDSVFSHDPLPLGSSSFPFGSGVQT
T1 sequence (P22455 467-755 limits assumed): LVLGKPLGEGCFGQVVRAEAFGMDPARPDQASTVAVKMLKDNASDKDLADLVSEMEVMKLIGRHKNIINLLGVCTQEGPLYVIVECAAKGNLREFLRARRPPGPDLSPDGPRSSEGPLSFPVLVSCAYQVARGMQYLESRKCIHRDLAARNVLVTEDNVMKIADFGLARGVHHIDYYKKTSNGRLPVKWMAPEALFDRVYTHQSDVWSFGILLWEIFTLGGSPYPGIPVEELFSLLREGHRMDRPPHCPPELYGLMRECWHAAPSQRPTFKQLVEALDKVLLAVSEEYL
T5 sequence (P22607 23-806): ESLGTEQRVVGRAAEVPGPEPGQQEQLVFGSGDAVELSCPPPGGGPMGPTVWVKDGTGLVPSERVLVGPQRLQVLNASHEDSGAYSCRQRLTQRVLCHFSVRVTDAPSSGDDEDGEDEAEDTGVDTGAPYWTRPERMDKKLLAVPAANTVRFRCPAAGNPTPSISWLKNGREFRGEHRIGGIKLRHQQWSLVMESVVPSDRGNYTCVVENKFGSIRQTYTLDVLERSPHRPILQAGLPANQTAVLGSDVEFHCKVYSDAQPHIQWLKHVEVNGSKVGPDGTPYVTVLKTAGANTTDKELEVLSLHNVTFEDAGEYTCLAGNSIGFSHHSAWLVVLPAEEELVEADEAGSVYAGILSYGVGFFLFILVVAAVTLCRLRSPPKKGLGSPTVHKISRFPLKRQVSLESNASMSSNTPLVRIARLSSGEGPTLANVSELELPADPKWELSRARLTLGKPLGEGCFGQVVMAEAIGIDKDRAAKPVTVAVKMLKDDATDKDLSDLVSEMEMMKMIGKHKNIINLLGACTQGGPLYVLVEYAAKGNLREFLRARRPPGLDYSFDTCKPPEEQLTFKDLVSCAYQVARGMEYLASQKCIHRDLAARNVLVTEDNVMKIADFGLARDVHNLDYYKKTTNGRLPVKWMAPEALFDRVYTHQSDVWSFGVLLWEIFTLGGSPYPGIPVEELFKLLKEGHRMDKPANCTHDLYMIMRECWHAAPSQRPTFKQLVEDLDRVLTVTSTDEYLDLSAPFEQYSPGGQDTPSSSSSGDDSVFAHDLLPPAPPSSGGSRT
T6 sequence (P21802 22-821): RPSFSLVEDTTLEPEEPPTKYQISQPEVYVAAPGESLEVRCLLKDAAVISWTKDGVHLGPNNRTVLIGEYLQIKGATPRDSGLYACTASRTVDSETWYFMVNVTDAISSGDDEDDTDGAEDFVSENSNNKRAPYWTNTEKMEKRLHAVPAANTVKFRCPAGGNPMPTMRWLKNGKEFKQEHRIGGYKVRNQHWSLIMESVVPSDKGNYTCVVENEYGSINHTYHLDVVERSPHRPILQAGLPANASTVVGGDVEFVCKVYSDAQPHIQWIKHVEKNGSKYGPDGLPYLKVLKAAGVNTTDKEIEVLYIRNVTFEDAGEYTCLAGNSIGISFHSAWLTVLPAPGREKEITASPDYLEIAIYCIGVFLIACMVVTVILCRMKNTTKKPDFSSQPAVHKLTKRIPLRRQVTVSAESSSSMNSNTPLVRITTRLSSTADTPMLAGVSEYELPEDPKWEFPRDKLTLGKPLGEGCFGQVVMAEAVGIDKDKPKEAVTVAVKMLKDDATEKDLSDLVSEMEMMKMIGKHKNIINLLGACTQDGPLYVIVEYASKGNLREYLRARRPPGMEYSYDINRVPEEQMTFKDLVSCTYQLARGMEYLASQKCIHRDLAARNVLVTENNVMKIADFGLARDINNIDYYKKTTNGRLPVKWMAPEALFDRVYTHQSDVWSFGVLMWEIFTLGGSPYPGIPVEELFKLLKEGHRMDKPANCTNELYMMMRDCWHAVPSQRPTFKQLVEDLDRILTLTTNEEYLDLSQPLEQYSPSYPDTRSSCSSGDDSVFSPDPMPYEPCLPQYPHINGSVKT
T2 sequence (P11362 478-767 limits assumed): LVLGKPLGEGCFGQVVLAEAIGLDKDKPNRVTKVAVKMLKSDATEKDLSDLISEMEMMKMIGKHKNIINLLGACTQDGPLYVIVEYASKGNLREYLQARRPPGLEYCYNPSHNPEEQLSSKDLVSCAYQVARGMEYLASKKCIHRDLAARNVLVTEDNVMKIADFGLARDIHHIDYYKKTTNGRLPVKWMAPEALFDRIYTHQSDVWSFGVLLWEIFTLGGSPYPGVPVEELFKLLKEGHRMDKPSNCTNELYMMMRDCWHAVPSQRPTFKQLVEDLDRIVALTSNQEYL
T3 sequence (P22607 397-758 limits assumed): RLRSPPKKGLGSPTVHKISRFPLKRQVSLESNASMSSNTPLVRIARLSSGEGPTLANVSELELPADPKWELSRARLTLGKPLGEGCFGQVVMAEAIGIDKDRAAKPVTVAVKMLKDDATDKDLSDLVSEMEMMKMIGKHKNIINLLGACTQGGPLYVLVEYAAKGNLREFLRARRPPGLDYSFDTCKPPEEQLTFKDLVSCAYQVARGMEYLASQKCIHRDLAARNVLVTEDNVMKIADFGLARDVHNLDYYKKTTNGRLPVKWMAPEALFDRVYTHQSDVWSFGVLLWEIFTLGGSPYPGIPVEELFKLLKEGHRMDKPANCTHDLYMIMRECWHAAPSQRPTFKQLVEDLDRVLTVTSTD

| Compound | Kd (FGFR4) [nM] | Kd (FGFR3) [nM] | Kd (FGFR2) [nM] | Kd (FGFR1) [nM] | IC50 (BCR-FGFR4 Ba/F3) [nM] | IC50 (BCR-FGFR1 Ba/F3) [nM] | IC50 (FGFR3-BAIAP2L1 Ba/F3) [nM] |
| --- | --- | --- | --- | --- | --- | --- | --- |
| Cc1cnnc(C)c1[C@@H](C)Oc1ccc2[nH]nc(-c3cc(C#N)cc(OCCO)c3)c2c1 [Example 72, 3-[5-[(1R)-1-(3,5-dimethylpyridazin-4-yl)ethoxy]-1H-indazol-3-yl]-5-(2-hydroxyethoxy)benzonitrile] | 0.1 to 100 | 0.1 to 100 | 0.1 to 100 | 0.1 to 100 | 100 to 250 | 250 to 1000 | 0.1 to 100 |
| COc1cc(C#N)cc(-c2n[nH]c3ccc(O[C@H](C)c4c(C)cnnc4C)cc23)c1 [Example 53, 3-[5-[(1R)-1-(3,5-dimethylpyridazin-4-yl)ethoxy]-1H-indazol-3-yl]-5-methoxy-benzonitrile] | 0.1 to 100 | 0.1 to 100 | 0.1 to 100 | 250 to 1000 | 250 to 1000 | – | – |
| Cc1cc(C#N)cc(-c2n[nH]c3ccc(O[C@H](C)c4c(C)cnnc4C)cc23)c1 [Example 79, 3-[5-[(1R)-1-(3,5-dimethylpyridazin-4-yl)ethoxy]-1H-indazol-3-yl]-5-methyl-benzonitrile] | 0.1 to 100 | 0.1 to 100 | 0.1 to 100 | 0.1 to 100 | 250 to 1000 | 250 to 1000 | 0.1 to 100 |
| C[C@@H](Oc1ccc2[nH]nc(-c3cnc4c(c3)NCCO4)c2c1)c1c(Cl)cncc1Cl [Example 17, 7-[5-[(1R)-1-(3,5-dichloro-4-pyridyl)ethoxy]-1H-indazol-3-yl]-2,3-dihydro-1H-pyrido[2,3-b][1,4]oxazine] | 0.1 to 100 | 0.1 to 100 | 0.1 to 100 | 0.1 to 100 | 250 to 1000 | – | – |
| C[C@@H](Oc1ccc2[nH]nc(-c3cnc(N)c(OC(F)F)c3)c2c1)c1c(Cl)cncc1Cl [Example 28, 5-[5-[(1R)-1-(3,5-dichloro-4-pyridyl)ethoxy]-1H-indazol-3-yl]-3-(difluoromethoxy)pyridin-2-amine] | 0.1 to 100 | 250 to 1000 | > 1000 | 250 to 1000 | 250 to 1000 | > 1000 | 250 to 1000 |
| C[C@@H](Oc1ccc2[nH]nc(-c3cnc(N)c(C#N)c3)c2c1)c1c(Cl)cncc1Cl [Example 30, 2-amino-5-[5-[(1R)-1-(3,5-dichloro-4-pyridyl)ethoxy]-1H-indazol-3-yl]pyridine-3-carbonitrile] | 0.1 to 100 | 0.1 to 100 | > 1000 | 0.1 to 100 | 250 to 1000 | – | – |
| C[C@@H](Oc1ccc2[nH]nc(-c3cnc4c(c3)N(C(=O)CCN(C)C)CCO4)c2c1)c1c(Cl)cncc1Cl [Example 26, 1-[7-[5-[(1R)-1-(3,5-dichloro-4-pyridyl)ethoxy]-1H-indazol-3-yl]-2,3-dihydropyrido[2,3-b][1,4]oxazin-1-yl]-3-(dimethyl-amino)propan-1-one] | 0.1 to 100 | 250 to 1000 | > 1000 | > 1000 | 0.1 to 100 | – | – |
| C[C@@H](Oc1ccc2[nH]nc(-c3cnc4c(c3)N(CCO)CCO4)c2c1)c1c(Cl)cncc1Cl [Example 49, 2-[7-[5-[(1R)-1-(3,5-dichloro-4-pyridyl)ethoxy]-1H-indazol-3-yl]-2,3-dihydro-pyrido[2,3-b][1,4]oxazin-1-yl]ethanol] | 100 to 250 | 250 to 1000 | > 1000 | > 1000 | 250 to 1000 | – | – |
| COc1cc(-c2n[nH]c3ccc(O[C@H](C)c4c(Cl)cncc4Cl)cc23)cnc1N [Example 34, 5-[5-[(1R)-1-(3,5-dichloro-4-pyridyl)ethoxy]-1H-indazol-3-yl]-3-methoxy-pyridin-2-amine] | 0.1 to 100 | 0.1 to 100 | 250 to 1000 | 250 to 1000 | 250 to 1000 | – | – |

The next lines start with results.

| Kd (FGFR4) [nM] | Kd (FGFR3) [nM] | Kd (FGFR2) [nM] | Kd (FGFR1) [nM] | Compound | IC50 (BCR-FGFR4 Ba/F3) [nM] | IC50 (BCR-FGFR1 Ba/F3) [nM] | IC50 (FGFR3-BAIAP2L1 Ba/F3) [nM] |
| --- | --- | --- | --- | --- | --- | --- | --- |
| 0.1 to 100 | 0.1 to 100 | 100 to 250 | 0.1 to 100 | Cc1ccc(C(=O)N2CCOc3ncc(-c4n[nH]c5ccc(O[C@H](C)c6c(Cl)cncc6Cl)cc45)cc32)cn1 [Example 41] | 250 to 1000 | – | – |
| 0.1 to 100 | 0.1 to 100 | 100 to 250 | 100 to 250 | C[C@@H](Oc1ccc2[nH]nc(-c3cnc4c(c3)N(C(=O)c3ccccn3)CCO4)c2c1)c1c(Cl)cncc1Cl [Example 20, [7-[5-[(1R)-1-(3,5-dichloro-4-pyridyl)ethoxy]-1H-indazol-3-yl]-2,3-dihydropyrido[2,3-b][1,4]oxazin-1-yl]-(2-pyridyl)methanone] | 250 to 1000 | – | – |
| 0.1 to 100 | 0.1 to 100 | 250 to 1000 | 250 to 1000 | Cc1nccc(C(=O)N2CCOc3ncc(-c4n[nH]c5ccc(O[C@H](C)c6c(Cl)cncc6Cl)cc45)cc32)n1 [Example 40, [7-[5-[(1R)-1-(3,5-dichloro-4-pyridyl)ethoxy]-1H-indazol-3-yl]-2,3-dihydro-pyrido[2,3-b][1,4]oxazin-1-yl]-(2-methyl-pyrimidin-4-yl)methanone] | 250 to 1000 | – | – |
| 0.1 to 100 | > 1000 | > 1000 | > 1000 | C=CC(=O)N1CCOc2ncc(-c3n[nH]c4ccc(O[C@H](C)c5c(Cl)cncc5Cl)cc34)cc21 [Example 25, 1-[7-[5-[(1R)-1-(3,5-dichloro-4-pyridyl)ethoxy]-1H-indazol-3-yl]-2,3-dihydro-pyrido[2,3-b][1,4]oxazin-1-yl]prop-2-en-1-one] | 0.1 to 100 | > 1000 | 250 to 1000 |
| 0.1 to 100 | 100 to 250 | > 1000 | > 1000 | Cc1ncccc1C(=O)N1CCOc2ncc(-c3n[nH]c4ccc(O[C@H](C)c5c(Cl)cncc5Cl)cc34)cc21 [Example 42, [7-[5-[(1R)-1-(3,5-dichloro-4-pyridyl)ethoxy]-1H-indazol-3-yl]-2,3-dihydro-pyrido[2,3-b][1,4]oxazin-1-yl]-(2-methyl-3-pyridyl)methanone] | > 1000 | – | – |
